Values quoted from earlier work, collected in PubChem BioAssay AID1259409 (Chemical Carcinogenesis Research Information System (CCRIS), 2018).

Test system: rodent chemically induced tumor inhibition, incidence and multiplicity
Test: CCRIS tumor inhibitor studies
Settings: Dose [Inhibitor]: 0

Structure (SMILES): O=C(OC[C@@H]1O[C@H](OC(=O)c2cc(O)c(O)c(OC(=O)c3cc(O)c(O)c(O)c3)c2)[C@@H](OC(=O)c2cc(O)c(O)c(OC(=O)c3cc(O)c(O)c(O)c3)c2)[C@H](OC(=O)c2cc(O)c(O)c(OC(=O)c3cc(O)c(O)c(O)c3)c2)[C@H]1OC(=O)c1cc(O)c(O)c(OC(=O)c2cc(O)c(O)c(O)c2)c1)c1cc(O)c(O)c(OC(=O)c2cc(O)c(O)c(O)c2)c1
- tumour outcome (control, treated, inhibition, significance) (Carcinogen: 7,12-DIMETHYLBENZ[A]ANTHRACENE : 57-97-6, 17 MG 2/WK FOR 20 WK APPLIED 24 HR POST EACH PROMOTER DOSE (STUDY DURATION: 22 WK), Route [Inhibitor]: DERMAL, Species: MOUSE, Strain/Sex: CF-1/FEMALE, Target Tissue: Type of Lesion: SKIN: PAPILLOMA, Dose [Carcinogen]: 25.6 UG IN 0.2 ML ACETONE ONCE, Promoter: 12-O-TETRADECANOYLPHORBOL-13-ACETATE, 16561-29-8): 90%, 98%, -9%, not calculated
- tumour outcome (control, treated, inhibition, significance) (Carcinogen: 7,12-DIMETHYLBENZ[A]ANTHRACENE, 57-97-6, 1% IN DIET FOR 35 WK BEGINNING POST CARCINOGEN DOSE (STUDY DURATION: 36 WK), Route [Inhibitor]: ORAL, Species: RAT, Strain/Sex: SPRAGUE-DAWLEY/FEMALE, Target Tissue: Type of Lesion: EAR DUCT: TUMOR, Dose [Carcinogen]: 50 MG/KG BW IN CORN OIL ONCE, Promoter: NONE USED): 5/15 (33%), 5/15 (33%), 0%, not significant
- tumour outcome (control, treated, inhibition, significance) (Carcinogen: 7,12-DIMETHYLBENZ[A]ANTHRACENE, 57-97-6, 1% IN DIET FOR 35 WK BEGINNING POST CARCINOGEN DOSE (STUDY DURATION: 36 WK), Route [Inhibitor]: ORAL, Species: RAT, Strain/Sex: SPRAGUE-DAWLEY/FEMALE, Target Tissue: Type of Lesion: MAMMARY GLAND: ADENOCARCINOMA, Dose [Carcinogen]: 50 MG/KG BW IN CORN OIL ONCE, Promoter: NONE USED): 14/15 (93%), 12/15 (80%), 14%, not significant
- tumour outcome (control, treated, inhibition, significance) (Carcinogen: 7,12-DIMETHYLBENZ[A]ANTHRACENE, 57-97-6, 1% IN DIET FOR 35 WK BEGINNING POST CARCINOGEN DOSE (STUDY DURATION: 36 WK), Route [Inhibitor]: ORAL, Species: RAT, Strain/Sex: SPRAGUE-DAWLEY/FEMALE, Target Tissue: Type of Lesion: MAMMARY GLAND: FIBROADENOMA, Dose [Carcinogen]: 50 MG/KG BW IN CORN OIL ONCE, Promoter: NONE USED): 3/15 (20%), 2/15 (13%), 35%, not significant
- tumour outcome (control, treated, inhibition, significance) (Carcinogen: 7,12-DIMETHYLBENZ[A]ANTHRACENE, 57-97-6, 2.5 UMOL IN 0.4 ML ACETONE 20 MIN PRIOR TO EACH PROMOTER DOSE (STUDY DURATION: 47 WK), Route [Inhibitor]: DERMAL, Species: MOUSE, Strain/Sex: CF-1/FEMALE, Target Tissue: Type of Lesion: SKIN: PAPILLOMA, Dose [Carcinogen]: 100 NMOL IN 0.2 ML ACETONE ONCE): 94%, 61%, 35%, not calculated
- tumour outcome (control, treated, inhibition, significance) (Carcinogen: 7,12-DIMETHYLBENZ[A]ANTHRACENE, 57-97-6, 5 UMOL IN 0.4 ML ACETONE 20 MIN PRIOR TO EACH PROMOTER DOSE (STUDY DURATION: 47 WK), Route [Inhibitor]: DERMAL, Species: MOUSE, Strain/Sex: CF-1/FEMALE, Target Tissue: Type of Lesion: SKIN: PAPILLOMA, Dose [Carcinogen]: 100 NMOL IN 0.2 ML ACETONE ONCE): 94%, 46%, 51%, not calculated
- tumour outcome (control, treated, inhibition, significance) (Carcinogen: 7,12-DIMETHYLBENZ[A]ANTHRACENE, 57-97-6, 10 UMOL IN 0.4 ML ACETONE 20 MIN PRIOR TO EACH PROMOTER DOSE (STUDY DURATION: 47 WK), Route [Inhibitor]: DERMAL, Species: MOUSE, Strain/Sex: CF-1/FEMALE, Target Tissue: Type of Lesion: SKIN: CARCINOMA, Dose [Carcinogen]: 100 NMOL IN 0.2 ML ACETONE ONCE): 67%, 11%, 84%, not calculated
- tumour outcome (control, treated, inhibition, significance) (Carcinogen: 7,12-DIMETHYLBENZ[A]ANTHRACENE, 57-97-6, 10 UMOL IN 0.4 ML ACETONE 20 MIN PRIOR TO EACH PROMOTER DOSE (STUDY DURATION: 47 WK), Route [Inhibitor]: DERMAL, Species: MOUSE, Strain/Sex: CF-1/FEMALE, Target Tissue: Type of Lesion: SKIN: PAPILLOMA, Dose [Carcinogen]: 100 NMOL IN 0.2 ML ACETONE ONCE): 94%, 43%, 54%, not calculated
- tumour outcome (control, treated, inhibition, significance) (Carcinogen: 7,12-DIMETHYLBENZ[A]ANTHRACENE, 57-97-6, 17 MG 2/WK FOR 2 WK APPLIED 20 MIN PRIOR TO EACH TPA DOSE (STUDY DURATION: 22 WK), Route [Inhibitor]: DERMAL, Species: MOUSE, Strain/Sex: SENCAR/FEMALE, Target Tissue: Type of Lesion: SKIN: PAPILLOMA, Dose [Carcinogen]: 6.4 UG IN 0.2 ML ACETONE ONCE, Promoter: 12-O-TETRADECANOYLPHORBOL-13-ACETATE, 16561-29-8, MEZEREIN, 34807-41-5, Promoter: 12-O-TETRADECANOYLPHORBOL-13-ACETATE, 16561-29-8, MEZEREIN, 34807-41-5): 90%, 94%, -4%, not calculated
- tumour outcome (control, treated, inhibition, significance) (Carcinogen: 7,12-DIMETHYLBENZ[A]ANTHRACENE, 57-97-6, 17 MG 2/WK FOR 18 WK APPLIED 20 MIN PRIOR TO EACH MEZEREIN DOSE (STUDY DURATION: 22 WK), Route [Inhibitor]: DERMAL, Species: MOUSE, Strain/Sex: SENCAR/FEMALE, Target Tissue: Type of Lesion: SKIN: PAPILLOMA, Dose [Carcinogen]: 6.4 UG IN 0.2 ML ACETONE ONCE, Promoter: 12-O-TETRADECANOYLPHORBOL-13-ACETATE, 16561-29-8 : MEZEREIN, 34807-41-5, Promoter: 12-O-TETRADECANOYLPHORBOL-13-ACETATE, 16561-29-8 : MEZEREIN, 34807-41-5): 90%, 62%, 31%, not calculated
- tumour outcome (control, treated, inhibition, significance) (Carcinogen: 7,12-DIMETHYLBENZ[A]ANTHRACENE, 57-97-6, 17 MG 2/WK FOR 20 WK APPLIED 20 MIN PRIOR TO AND 24 HR POST EACH PROMOTER DOSE (STUDY DURATION: 22 WK), Route [Inhibitor]: DERMAL, Species: MOUSE, Strain/Sex: CF-1/FEMALE, Target Tissue: Type of Lesion: SKIN: PAPILLOMA, Dose [Carcinogen]: 25.6 UG IN 0.2 ML ACETONE ONCE, Promoter: 12-O-TETRADECANOYLPHORBOL-13-ACETATE, 16561-29-8): 90%, 16%, 82%, not calculated
